Tests used:
Nitric oxide synthase 3 = target: T1, Nitric oxide synthase 3 (Homo sapiens, UniProt P29474); experiment: Inhibition of endothelial nitric oxide synthase
T1 sequence (P29474 whole entry): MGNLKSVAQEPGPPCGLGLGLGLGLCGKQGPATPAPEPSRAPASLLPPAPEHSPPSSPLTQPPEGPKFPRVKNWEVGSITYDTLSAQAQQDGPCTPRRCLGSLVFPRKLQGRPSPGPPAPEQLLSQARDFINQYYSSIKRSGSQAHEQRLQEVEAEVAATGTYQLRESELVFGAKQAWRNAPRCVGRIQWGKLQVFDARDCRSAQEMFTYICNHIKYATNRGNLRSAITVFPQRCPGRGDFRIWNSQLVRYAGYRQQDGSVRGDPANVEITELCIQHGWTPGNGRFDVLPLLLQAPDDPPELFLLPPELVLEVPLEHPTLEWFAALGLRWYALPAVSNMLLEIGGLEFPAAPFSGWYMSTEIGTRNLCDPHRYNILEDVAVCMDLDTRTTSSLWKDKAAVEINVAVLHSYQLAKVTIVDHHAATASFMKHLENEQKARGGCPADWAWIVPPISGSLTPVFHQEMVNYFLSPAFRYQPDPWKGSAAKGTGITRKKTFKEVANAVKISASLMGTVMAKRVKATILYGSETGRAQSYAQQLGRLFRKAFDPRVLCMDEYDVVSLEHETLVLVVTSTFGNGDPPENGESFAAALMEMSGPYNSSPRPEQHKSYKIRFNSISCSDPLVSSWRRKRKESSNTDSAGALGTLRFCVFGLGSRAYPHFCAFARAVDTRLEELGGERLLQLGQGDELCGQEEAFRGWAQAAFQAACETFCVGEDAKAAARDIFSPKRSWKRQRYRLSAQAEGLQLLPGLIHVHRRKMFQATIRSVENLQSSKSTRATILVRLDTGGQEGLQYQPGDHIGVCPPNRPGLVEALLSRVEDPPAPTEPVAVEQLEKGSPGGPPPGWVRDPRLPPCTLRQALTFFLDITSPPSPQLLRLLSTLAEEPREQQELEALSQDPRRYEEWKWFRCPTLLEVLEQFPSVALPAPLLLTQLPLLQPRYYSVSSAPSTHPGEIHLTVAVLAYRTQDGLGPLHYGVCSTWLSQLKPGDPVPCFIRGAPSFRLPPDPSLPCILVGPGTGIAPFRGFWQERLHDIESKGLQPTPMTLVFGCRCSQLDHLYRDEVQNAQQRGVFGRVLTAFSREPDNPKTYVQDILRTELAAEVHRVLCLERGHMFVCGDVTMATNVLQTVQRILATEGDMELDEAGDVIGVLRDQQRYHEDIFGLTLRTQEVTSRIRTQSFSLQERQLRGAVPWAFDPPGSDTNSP

[1] = target: T2, Nitric oxide synthase, inducible (Homo sapiens, UniProt P35228); experiment: Inhibition of inducible nitric oxide synthase
Nitric oxide synthase 1 [2] = target: T3, Nitric oxide synthase 1 (Homo sapiens, UniProt P29475); experiment: Inhibition of Neuronal nitric oxide synthase
[3] = target: T4, Nitric oxide synthase 3 (Homo sapiens) (UniProt P29474); experiment: Inhibitory activity against Endothelial nitric oxide synthase at 100 uM concentration was determined
T4 sequence (whole entry): T1 sequence (P29474 whole entry)

[4] = target: T2, Nitric oxide synthase, inducible; experiment: Inhibitory activity against Inducible nitric oxide synthase at 100 uM concentration was determined
Nitric oxide synthase 1 [5] = target: T3, Nitric oxide synthase 1; experiment: Inhibitory activity against Neuronal nitric oxide synthase at 100 uM concentration was determined

T2 sequence (P35228 whole entry): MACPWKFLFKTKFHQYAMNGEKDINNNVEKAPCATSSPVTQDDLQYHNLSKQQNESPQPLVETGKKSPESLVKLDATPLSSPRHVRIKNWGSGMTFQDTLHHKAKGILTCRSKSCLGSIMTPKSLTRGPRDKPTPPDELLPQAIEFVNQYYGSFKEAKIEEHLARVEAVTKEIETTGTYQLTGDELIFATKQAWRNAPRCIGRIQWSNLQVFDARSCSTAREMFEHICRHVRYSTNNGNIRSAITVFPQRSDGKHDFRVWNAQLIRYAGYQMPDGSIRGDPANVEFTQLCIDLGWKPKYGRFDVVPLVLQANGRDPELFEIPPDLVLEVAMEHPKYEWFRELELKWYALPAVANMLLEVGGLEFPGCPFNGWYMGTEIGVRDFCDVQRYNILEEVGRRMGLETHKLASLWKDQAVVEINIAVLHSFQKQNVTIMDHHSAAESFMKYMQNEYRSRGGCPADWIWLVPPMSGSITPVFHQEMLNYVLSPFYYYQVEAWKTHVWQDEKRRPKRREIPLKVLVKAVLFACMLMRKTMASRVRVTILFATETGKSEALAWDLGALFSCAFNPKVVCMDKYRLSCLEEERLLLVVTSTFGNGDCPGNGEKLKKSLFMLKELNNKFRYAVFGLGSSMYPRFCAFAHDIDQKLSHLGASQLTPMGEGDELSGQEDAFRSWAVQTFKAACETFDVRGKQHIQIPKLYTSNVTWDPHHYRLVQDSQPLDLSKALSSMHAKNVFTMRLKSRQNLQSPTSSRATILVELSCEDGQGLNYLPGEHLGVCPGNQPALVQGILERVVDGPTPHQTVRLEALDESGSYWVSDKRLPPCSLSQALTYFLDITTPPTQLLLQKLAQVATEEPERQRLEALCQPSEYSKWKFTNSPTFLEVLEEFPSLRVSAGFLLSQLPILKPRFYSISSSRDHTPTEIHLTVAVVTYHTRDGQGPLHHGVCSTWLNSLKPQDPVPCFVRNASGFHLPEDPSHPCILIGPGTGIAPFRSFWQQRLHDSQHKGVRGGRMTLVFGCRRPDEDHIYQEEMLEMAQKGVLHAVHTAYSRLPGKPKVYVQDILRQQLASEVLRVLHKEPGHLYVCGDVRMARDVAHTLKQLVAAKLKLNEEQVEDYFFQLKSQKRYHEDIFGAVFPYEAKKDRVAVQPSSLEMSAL
T3 sequence (P29475 whole entry): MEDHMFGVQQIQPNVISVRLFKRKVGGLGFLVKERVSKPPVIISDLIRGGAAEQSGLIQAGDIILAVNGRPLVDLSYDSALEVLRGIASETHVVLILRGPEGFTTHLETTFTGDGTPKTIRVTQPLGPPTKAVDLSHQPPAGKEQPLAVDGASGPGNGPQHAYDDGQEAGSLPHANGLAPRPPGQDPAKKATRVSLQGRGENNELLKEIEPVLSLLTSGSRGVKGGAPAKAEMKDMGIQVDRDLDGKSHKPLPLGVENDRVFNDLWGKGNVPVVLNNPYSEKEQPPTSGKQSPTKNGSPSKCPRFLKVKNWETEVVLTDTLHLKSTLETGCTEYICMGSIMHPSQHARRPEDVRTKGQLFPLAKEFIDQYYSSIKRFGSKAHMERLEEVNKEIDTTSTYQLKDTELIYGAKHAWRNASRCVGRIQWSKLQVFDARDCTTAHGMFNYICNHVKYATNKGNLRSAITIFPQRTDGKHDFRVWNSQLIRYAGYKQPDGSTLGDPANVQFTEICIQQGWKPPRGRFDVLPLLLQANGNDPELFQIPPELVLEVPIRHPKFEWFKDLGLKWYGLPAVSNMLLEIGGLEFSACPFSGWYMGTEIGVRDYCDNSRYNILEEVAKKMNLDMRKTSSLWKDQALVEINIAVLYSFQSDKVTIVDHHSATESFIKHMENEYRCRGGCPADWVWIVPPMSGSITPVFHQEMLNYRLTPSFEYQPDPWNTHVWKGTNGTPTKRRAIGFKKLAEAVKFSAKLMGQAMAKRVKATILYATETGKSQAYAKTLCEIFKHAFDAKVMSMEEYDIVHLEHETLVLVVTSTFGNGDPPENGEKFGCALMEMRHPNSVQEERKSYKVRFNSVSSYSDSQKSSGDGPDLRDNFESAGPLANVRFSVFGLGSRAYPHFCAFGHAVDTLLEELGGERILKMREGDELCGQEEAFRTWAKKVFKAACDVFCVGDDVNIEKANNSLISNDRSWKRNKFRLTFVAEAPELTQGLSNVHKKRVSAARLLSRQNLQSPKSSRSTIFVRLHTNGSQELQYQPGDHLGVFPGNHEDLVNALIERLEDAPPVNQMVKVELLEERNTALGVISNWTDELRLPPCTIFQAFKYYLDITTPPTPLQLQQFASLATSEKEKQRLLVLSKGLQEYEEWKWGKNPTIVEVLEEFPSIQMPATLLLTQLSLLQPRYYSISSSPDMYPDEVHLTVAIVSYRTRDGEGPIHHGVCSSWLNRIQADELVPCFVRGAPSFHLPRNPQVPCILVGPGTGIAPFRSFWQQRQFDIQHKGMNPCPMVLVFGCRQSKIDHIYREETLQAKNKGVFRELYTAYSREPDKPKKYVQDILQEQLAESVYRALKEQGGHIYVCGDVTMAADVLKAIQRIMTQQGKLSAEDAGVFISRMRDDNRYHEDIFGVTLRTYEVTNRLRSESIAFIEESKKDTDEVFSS

SMILES | IC50 (Nitric oxide synthase 3) [µM] | IC50 [1] [µM] | IC50 (Nitric oxide synthase 1 [2]) [µM] | inhibition [3] [%] | inhibition [4] [%] | inhibition (Nitric oxide synthase 1 [5]) [%]
CCCCC1COCCC(N)=N1 (configuration not stated) | 1360 | 2.43 | 25.9 |  |  | 
CCOC(=O)[C@@H]1CSCCC(N)=N1 |  |  |  | 8.66 | 70.9 | 84.8
CCOC(=O)[C@@H]1CCSCC/C(N)=N\1 |  |  |  | 2.4 | 55.7 | 13.9
NCCC1COCCC(N)=N1 (configuration not stated) | 248 | 6.66 | 8.39 |  |  | 
N/C1=N/CCCSCC1 | 186 | 13.1 | 21 |  |  | 
CCOC(=O)[C@H]1CSCCC(N)=N1 |  |  |  | 13.9 | 70.9 | 82.6
C/C=C/CC1CCCCC(N)=N1 (configuration not stated) | 206 | 0.89 | 3.39 |  |  | 
NC1=NCCOCC1 | 72.7 | 14 | 17.7 |  |  | 
C/C=C/CC1COCCC(N)=N1 (configuration not stated) | 709 | 9.26 | 108 |  |  | 
CN1CCN=C(N)CC1 |  |  |  | 6.42 | 32.1 | 

Further molecules by falling IC50 [1], results first:

IC50 (Nitric oxide synthase 3) [µM] | IC50 [1] [µM] | IC50 (Nitric oxide synthase 1 [2]) [µM] | inhibition [3] [%] | inhibition [4] [%] | inhibition (Nitric oxide synthase 1 [5]) [%] | SMILES
43.6 | 2.7 | 6.8 |  |  |  | NC1=NCCSCC1
49.3 | 0.979 | 6.24 |  |  |  | N=C1CCOCC(CC[N+](=O)[O-])N1 (configuration not stated)
39.1 | 0.701 | 0.932 |  |  |  | NCCC1CCCCC(N)=N1 (configuration not stated)
 | 0.517 |  |  |  |  | CCCCC1CCCCC(N)=N1 (configuration not stated)
2.77 | 0.152 | 0.339 |  |  |  | NC1=NC(CC[N+](=O)[O-])CCCC1 (configuration not stated)
